The structures appear in SMILES notation. Read-outs that look alike come from different tables or passages of the source. Marks after values point to notes of the source that are not given here.

One data set concerns c-Fos positive neurones. Put plainly: Example 1: formalin hindpaw injection in 7 day neonatal rat pup, cFos positive neurones in dorsal horn. The note with it: 7 day old rat; dorsal horn of spinal cord; 90 minutes after formalin; xenon 70% v/v, nitrous oxide at a normally analgesic dose in the adult rat. Type of data set: in vivo. The procedure: The analgesic efficacy of xenon was investigated in a neonatal rat pup. A 7 day neonatal rat pup is known to be developmentally equivalent to a human full term fetus with respect to pain processing pathways.
A 7 day old rat was injected with formalin into the hindpaw during exposure to either air or xenon (70% v/v). 90 minutes later the animal was killed and the spinal cord removed; evidence of activation of pain-processing pathways by formalin was sought by counting the number of cFos positive neurones in the dorsal horn of the spinal cord.

A further data set deals with Fischer rats. Put plainly: Formalin plantar test, nociceptive intensity scoring (behaviour). Type of data set: in vivo, rat. To be noted: for area under curve (AUC) of nociceptive intensity scoring curves: 70% Xe + formalin, AUC over 60 min, mean(SEM), n=3-4. On the procedure:
(§1) The study protocol was approved by the Home Office (UK), and all efforts were made to minimize animal suffering and the number of animals used. Fischer rats were used for the entire study (B&K Universal, Grimston Aldbrough Hull, UK). The rats were provided ad libitum food and water, and artificial lighting between 6 a.m. and 6 p.m. The age of each animal was determined from the body weight, based on a previously established growth curve (Hashimoto et al., 2002). (The date of birth was defined as 0 day-old.) Experiments were performed on rat pups of 7, 19, 28 day-old and on adult rats (11-12 week-old).
(§2) Within each age-group, there were three cohorts (n=3 - 4) “Air+formalin”, “Xenon+formalin” and “Air+saline” cohorts. In the Air+formalin group, animals exposed to air were injected with 5% formalin into the plantar surface of their left hind paw subcutaneously. In the Xenon+formalin group, animals exposed to 70% Xe/20% O2/10% N2 were injected with 5% formalin as described above. In the Air+saline group, animals exposed to air were injected with saline as above. The volumes of formalin or saline injected were adjusted for each age group as previously reported [Ohashi Y et al, Pain 2002;100:7-18] and were as follows: 10 μl for 7 days old; 15 μl for 19 days old; 20 μl for 28 days old; 50 μl for adults.
(§3) A recirculating system for exposure to the gas was constructed to minimise xenon consumption (FIG. 3). The circuit was flushed with gas (either air or xenon/oxygen/nitrogen) at a flow rate of 4 l/min and after the desired gas concentrations were achieved, the flow rate was reduced to 40 ml/min for the remainder of the experimental period. The carbon dioxide level and the humidity were kept less than 0.6% and 50% respectively with soda lime and silica gel. Formalin or saline was administered 15 min after gas exposure; thereafter, animals were exposed to the gas mixture for a further 90 min.
Immediately after injection of formalin, behavior was recorded for 60 min with a video camera (MegaPixel, Digital Handycam, Sony) positioned approximately 50 cm beneath the floor of the chamber to allow an unobstructed view of the paws (visible via a television monitor) and to facilitate recording of animal behavior. The chamber and holding area for pups waiting to be tested were maintained at room temperature throughout the experiment.
Older rat pups were scored across four categories of pain behavior after xenon administration: no pain (the injected paw was in continuous contact with floor=“0”), favoring (the injected paw rested lightly on the floor=“1”), lifting (the injected paw was elevated all the time=“2”) and licking (licking, biting or shaking of the injected paw=“3”) [Teng C J et al, Pain 1998;76:337-47] and calculated as [Nociceptive score =(T1+[T2×2]+[T3×3])/300, where T1, T2 and T3 are the durations (sec) spent in categories 1, 2 or 3 per 300 sec epoch].
The nociceptive intensity scoring against time in each animal was plotted and the area under curve (over a 60 min time period) (AUC) from each animal was calculated. The mean of c-Fos positive neurons for three representative sections in each region as described above was the aggregate score for each animal. The results of nociceptive intensity or c-Fos positive neurons are reported as means±SEMs. The statistical analysis was performed by one-way analysis of variance, followed by Newman-Keuls test. A p value <0.05 was regarded as statistically significant.

The conditions of data set [1]: administration of xenon; cited from earlier work.
A further data set deals with c-Fos expression. Put plainly: Formalin-induced c-Fos expression at the lumbar level of the spinal cord (immunohistochemistry). Format: in vivo, rat. The note with it: ipsilateral, 70% Xe; for reduction of c-Fos expression in response to formalin: 7 day-old pups; for suppression of mean c-Fos expression: 19 day-old rats; for depression of c-Fos expression in response to formalin: 28 day-old rats; for inhibition of c-Fos expression: adult rats. On the procedure: as §1, §2, §3
Ninety min after the formalin injection, animals were deeply anesthetised with pentobarbital (100 mg/kg, i.p.) and perfused with 4% paraformaldehyde. The whole spinal cord was removed. The lumbar enlargement was sectioned transversely at 30 μm and then was stained for c-Fos as previously described [Ma D et al, Br J Anaesth 2002;89:73946]. Briefly, sections were incubated for 30 min in 0.3% H2O2 in methanol and thereafter washed three times in 0.1M phosphate buffered saline (PBS). Following this, the sections were incubated for 1 hour in a “blocking solution” consisting of 3% donkey serum and 0.3% Triton X in PBS (PBT) and subsequently incubated overnight at 4° C. in 1:5,000 goat anti-c-Fos antibody (sc-52-G, Santa Cruz Biotechnology, Santa Cruz, Calif.) in PBT with 1% donkey serum. The sections were then rinsed 3 times with PBT and incubated with 1:200 donkey anti-goat IgG (Vector laboratories, Burlingame, Calif.) in PBT with 1% Donkey serum for 1 hour. The sections were washed again with PBT and incubated with avidin-biotin-peroxidase complex (Vector Laboratories) in PBT for 1 hour. The sections were rinsed 3 times with PBS and stained with 3,3′-diaminobenzidine (DAB) with nickel ammonium sulphate in which hydrogen peroxide was added (DAB kit, Vector Laboratories). After the staining was completed, the sections were rinsed in PBS followed by distilled water and mounted, dehydrated with 100% ethanol, cleaned with 100% xylene and covered with cover slips.
Photomicrographs of three sections per each animal were scored for c-Fos positive neurons by an observer who was blinded to the experimental treatment. For the purpose of localizing the c-Fos positive cells to functional regions of the spinal cord, each section was divided into A/B (laminae I-II or the superficial area), C (laminae […] or nucleus proprius area), D (laminae V-VI or the neck area and E (laminae VII-Xor the ventral area) [Yi D K et al, Pain 1995;60:257-265]. […]

For data set [2] the following is noted: in vivo; cited from earlier work.
For a further data set, the system named is NMDA receptor. The note with it: 80% xenon; cultured hippocampal neurons; cited from earlier work.
The conditions of data set [3]: cited from earlier work.
A further data set concerns rats. To be noted: cited from earlier work.

Turning to `[Xe]` [xenon], in the data set on c-Fos positive neurones, the “effect on formalin-induced c-Fos positive neurones” value was “almost completely attenuated”. Further, the “area under curve (AUC) of nociceptive intensity scoring curves” value is given as 0.17(0.04)** in the data set with Fischer rats (7-day-old Fischer rats, P<0.001 vs Air + formalin 11(0.4)); 5(0.9)* with Fischer rats (19-day-old Fischer rats, P<0.01 vs Air + formalin 88(8)); 1.0(0.3)** with Fischer rats (28-day-old Fischer rats, P<0.001 vs Air + formalin 81(7)); 0.8(0.1)** in the data set with Fischer rats (Adult Fischer rats, P<0.001 vs Air + formalin 120(0.7)). For the same compound, in the data set on Fischer rats (7 day-old rats exposed to xenon, 60-min observation period), the “nociceptive behaviour after formalin injection” value is reported as “only mild nociceptive behaviour for the first two minutes”. The “inherent neurotoxicity of NMDA antagonists” value in data set [1] is “does not appear to exist”. The “reduction of c-Fos expression in response to formalin” value amounted to 50% in the data set with c-Fos expression (lamina C, P<0.001); 50% in the data set on c-Fos expression (lamina D, P<0.001); 28% in the data set on c-Fos expression (lamina E, P<0.01); 48% in the data set with c-Fos expression (laminae A/B, P<0.001). The “suppression of mean c-Fos expression” value came out at 57% with c-Fos expression (lamina III-IV, P<0.001); 62% with c-Fos expression (lamina V-VI, P<0.001); 55% in the data set on c-Fos expression (laminae I-II, P<0.001). In addition, the “depression of c-Fos expression in response to formalin” value is reported as 27% in the data set with c-Fos expression (lamina III-IV, P<0.001); 28% in the data set on c-Fos expression (lamina V-VI, P<0.001); 34% with c-Fos expression (laminae I-II, P<0.001). Moreover, the “inhibition of c-Fos expression” value came to 45% with c-Fos expression (lamina III-IV, P<0.001); 34% in the data set with c-Fos expression (lamina V-VI, P<0.001); 41% in the data set with c-Fos expression (laminae I-II, P<0.001). Moreover, in data set [2], the teratogenic effects result is “devoid of teratogenic effects”. Besides, the “reduction of NMDA-activated currents” value in the data set with NMDA receptor is “up to 60%”. The “minimum alveolar concentration (MAC)” value in data set [3] (elderly female patients) is 51 % atn; in data set [3] (humans), 71 % atm. Also, the MAC-awake in data set [3] (in vivo) is listed as 33%.
As for `[N-]=[N+]=O` [N2O, Nitrous oxide], the “effect on formalin-induced c-Fos positive neurones” value with c-Fos positive neurones was “did not change”. In addition, the “antinociceptive effect (behaviorally and immunohistochemically)” value in the data set on rats (animals younger than 23 days old, formalin) is reported as “no antinociceptive effect”. Moreover, in the data set on rats (rats under 3 weeks of age), the “antinociceptive effects against thermal and inflammatory stimulation” value was “lacks antinociceptive effects”. In addition, in data set [3] (humans), the MAC is 104%.

The values above are taken from patent publication US7632872B2, “Analgesic agent for newborn or fetal subjects” (Protexeon Limited, priority 2002, dated 2009).
